Source: PMC4757757, “Discovery of cahuitamycins as biofilm inhibitors derived from a convergent biosynthetic pathway” (Nature Communications, 2016)

How the values were obtained:
[1] = reference value used for the calculation; cited from earlier work
Description: (§1) In this method, the Fe–cahuitamycin complex was incubated with varying concentrations of EDTA and assessed for Fe distribution using ultraviolet–visible spectroscopy (Methods). The pFe^III for cahuitamycins were calculated against the known stability constants for EDTA (pFe^III=23.42)[24].

A. baumannii ATCC 17978 = test: growth of A. baumannii (minimum inhibitory concentration test, OD600 / CFU); type: cell-based, Acinetobacter baumannii
Description: Cultures of A. baumannii ATCC 17978 grown overnight were diluted into fresh 10% Mueller Hinton II broth to get 10^5 colony-forming unit per ml by determining optical density at OD600. A volume of 100 μl of diluted cultures were incubated in individual wells of 96-well plate containing 1% of DMSO and various concentrations of cahuitamycins C (3) and D (4). The plate was incubated at 30 °C with shaking at 150 r.p.m. The optical density of each well was monitored every 1 up to 24 h using a microtiter plate reader (Synergy HT, Bio-Tek, Winooski, VT). The number of viable bacterial cells was determined by counting colony-forming unit.

[2] = tested on: A. baumannii ATCC 17978 biofilm; type: cell-based, Acinetobacter baumannii; conditions: static crystal violet assay, OD600
Source text: A static biofilm assay was developed from a previously reported method. The biofilm assay measures the adhesion of bacteria to the surface of polystyrene 384-well microtiter plates. Adherent cells are detected by staining with crystal violet and subsequent washing to remove nonadherent planktonic cells. Inhibitors of biofilm formation prevent the bacteria from adhering to the surface of the microtiter plate and reduce the amount of crystal violet retained after washing. Assay quantification was performed by OD600 absorbance measurement of the crystal-violet-stained biofilm. The assay was optimized for plate surface treatment, time, temperature, media, media concentration, crystal violet concentration, wash method, inhibitor sensitivity and culture inoculum preparation.
The A. baumannii test strain (ATCC 17978) was maintained as a frozen stock at −80 °C in 20% glycerol. A volume of 5 ml of Mueller Hinton II cation adjusted media (Becton Dickinson, catalogue no. 212322) was inoculated and grown at 37 °C, 180 r.p.m. shaking for 4–6 h. The culture was then diluted 1:50 and incubated an additional 2 h. The resulting cells were washed four times by centrifugation and resuspension of the pellet in media was performed to remove any metabolites or cell signalling factors. The assay inoculum was prepared by diluting the cells to 0.008 OD600 in 10% Mueller Hinton II cation adjusted media (diluted in 18 Ohm deionized water). The assay plates (Corning, catalogue no. 3,680; 384-well non-treated polystyrene) were prepared by dispensing 20 μl of 10% Mueller Hinton II cation adjusted media into columns 1–22 using a Multidrop Combi dispenser (Thermo Fisher). The NPE samples were added as 0.2 μl of 15 mg ml^−1 stocks in DMSO using a Biomek FX high-density pintool (Beckman Coulter). Column 1 and 2 contained DMSO without NPEs and served as the negative control. The positive control was added to column 23 and 24 as 20 μl of 40 μM Baicalein (Sigma-Aldrich, catalogue no. 11712). […] Quantification was performed by measuring the OD600 absorbance using a Pherastar plate reader (BMG).

[3] = iron affinity (pFe^III) by competition titration with EDTA, UV-visible spectroscopy; type: binding; conditions: 10 mM HEPES, 0.1 M KCl, pH 7.4, 0.1 mM Fe complex, room temperature, at least 24 h, UV-vis, three individual titrations
Description: as §1

[4] = tested on: A. baumannii ATCC 17978 biofilm; test: flow cell biofilm assay (micrographs); type: cell-based, Acinetobacter baumannii; conditions: for biofilm in flow cells after 6 h of supplementation (in words) / biofilm in flow cells after 24 h of supplementation (in words): 7.5 μg/ml in 10% MHII broth, flow rate 4 ml/h, room temperature
Description: Next, we sought to probe the specific stage and extent of inhibition during biofilm formation employing a secondary flow cell assay (Supplementary Fig. 44; Methods).
Biofilms were formed by A. baumannii ATCC 17978 in flow chambers at room temperature. Images were taken at 1, 6 and 24 h (using a × 60 lens) after inoculation. A flow cell biofilm was achieved by using a flow cell chamber (ACCFL0001, Life Science Incorporated, Greensboro, NC). Briefly, overnight cultures of A. baumannii ATCC 17978 grown in MHII broth at 37 °C were diluted 100-fold with fresh MHII broth. A volume of 1 ml of dilution was injected into a flow cell chamber and allowed to settle 1 h for attachment of bacteria, followed by initiation media flow at a flow rate of 4 ml^−1 h^−1. Flow media was 10% MHII broth (control), 10% MHII broth with 7.5 μg ml^−1 of desferoxamine or 10% MHII broth with […] of cahuitamycin A. Micrographs of the biofilm were acquired at 1, 6 and 24 h after the start of flow media using an Olympus IX70 microscope with a × 60 lens. Flow was still running while acquiring the micrograph.

[5] = tested on: A. baumannii ATCC 17978 biofilm; test: confocal laser scanning microscope 3D imaging of biofilm formation and biomass (SYTO 9 / propidium iodide, COMSTAT); type: cell-based, Acinetobacter baumannii
Description: For visualizing bacterial biofilm formation, the same method as described previously was used for biofilm formation but in a glass-bottom 96-well plate (12–556–38, Fisher Scientific International Inc., Franklin, MA)[65]. […] PBS buffer (100 μl) containing 1 μM of SYTO 9 and 10 μM of propidium iodide was added into the well. The plate was incubated for 15 min in dark. Fluorescent images were acquired with an Olympus Fluoview FV1000 confocal microscope (Olympus, Markham, Ontario) with Melles Griot Laser supply and detectors and filter sets for monitoring SYTO 9 and propidium iodide fluorescence. Images were obtained using an oil immersion × 60 objective lens. 3D images were reconstructed using the Amira software package (Amira, San Diego, CA) from a stack of sectional images of biofilm samples. Biofilm biomass and per cent coverage were calculated based on those images using software COMSTAT[65].

[6] = treated at 240 nM, 22 h incubation, confocal x60, average of five replicates

O=C(O)CN(CCN(CC(=O)O)CC(=O)O)CC(=O)O [EDTA]
pFe^III (known stability constant) [1]: 23.42

Cahuitamycin B [compound 2]
effect on bacterial growth (in words) (A. baumannii ATCC 17978): no effects | effect on biofilm formation (in words) [2]: no effects | pFe^III [3]: 20.42±0.09

CC(=O)N(O)CCCCCNC(=O)CCC(=O)N(O)CCCCCNC(=O)CCC(=O)N(O)CCCCCN [desferrioxamine]
biofilm in flow cells after 6 h of supplementation (in words) [4]: formation of a robust biofilm | biofilm in flow cells after 24 h of supplementation (in words) [4]: biofilm became thicker | anti-biofilm activity of siderophore control (in words) ([4]; control to probe iron chelation as mode of action, Supplementary Figs 38 and 44): no activity

Cahuitamycin A [compound 1]
biofilm in flow cells after 6 h of supplementation (in words) [4]: only a few microcolonies | biofilm in flow cells after 24 h of supplementation (in words) [4]: larger microcolonies and initiation of biofilm formation | total biomass of biofilm ([5]; glass plate treated at 240 nM): 0.18 | Average thickness of biofilm [5, 6]: 0.21±0.07 μm | Maximum thickness of biofilm [5, 6]: 1.5±0.54 μm | Roughness coefficient of biofilm [5, 6]: 1.99±0.18 | total biomass of biofilm [5, 6]: 0.18±0.05 μm^3 μm^−2 | effect on biofilm formation (in words) [2]: able to inhibit | pFe^III [3]: 18.34±0.16

Cc1cccc(O)c1C1=N[C@H](C(=O)N[C@@H](CO)C(=O)N[C@H](CCCN(O)C=O)C(=O)N2NCCC[C@@H]2C(=O)NCCC(=O)O)CO1 [compound 3, Cahuitamycin C]
effect on bacterial growth (in words) (A. baumannii ATCC 17978): limited effect | total biomass of biofilm ([5]; glass plate treated at 240 nM): 0.10 | Average thickness of biofilm [5, 6]: 0.20±0.05 μm | Maximum thickness of biofilm [5, 6]: 1.5±0.33 μm | Roughness coefficient of biofilm [5, 6]: 1.99±0.20 | total biomass of biofilm [5, 6]: 0.10±0.03 μm^3 μm^−2 | pFe^III [3]: 17.52±0.12

Cc1ccc(O)c(C2=N[C@H](C(=O)N[C@@H](CO)C(=O)N[C@H](CCCN(O)C=O)C(=O)N[C@H](CCCNO)C(=O)NCCC(=O)O)CO2)c1 [compound 5, Cahuitamycin E]
IC50 ([2]; 10% Mueller Hinton II, 30 °C, 20 h, average of three replicates, read-out: IC50, inhibition of biofilm formation): 10.5 µM
